According to patent US7595313B2, “Nitric oxide donating diuretic compounds, compositions and methods of use” (NicOx, S.A., priority 2005, dated 2009):

Test system: Male Wistar rats
Experiment: Determination of the diuresis (urine volume over 6 hours after oral dosing)
Format: in vivo, rat
Protocol: Procedures were approved by the Institutional Animal Care and Use Committee of NitroMed, Inc. Male Wistar rats (180-200 g) were purchased from Charles River Laboratories (Kingston, N.Y. or Raleigh, N.C.) and allowed to acclimate in the facility for a period of at least 72 h. Rats were randomly housed 2-3 per cage in a light-controlled room with a 12 hour light/dark cycle and allowed ad libitum access to food and water.
Prior to the experiment, each rat was placed in a metabolic cage and allowed to acclimate for a period of 24-48 hours with food and water ad libitum. During this acclimation period, rats received mash food instead of pellet food to prevent contamination of the urine samples. All rats were fasted for 18 hours prior to experimentation. In addition, water was removed 90 minutes prior to oral dosing with test compound or vehicle.
The test compounds were prepared immediately prior to dosing in 0.5% Methocel (F4M Premium Hydroxypropyl Methylcellulose, lot # PF12012N12; Dow Chemical Company, USA) and homogenized with a glass/Teflon pestle motorized homogenizer. Gently vortexed test compounds were administered intragastrically (p.o.; 30 mg/kg or 3 mg/kg) at a dose volume of 3 ml per rat using an 18 gauge gavage needle. Urine volume (ml) was monitored and urine was collected for subsequent electrolyte analysis over a 6 hours period. […] Data are expressed as mean ±SEM; n=6 or 7.

[1] = p.o. 3 mg/kg in 0.5% Methocel, male Wistar rats, 6 hours, mean ± SEM, n=6 or 7

Row | SMILES | Urine collected in 6 hours (mL) (3 mg/kg) [1] | further results
1 | NS(=O)(=O)c1cc2c(cc1Cl)NC(CBr)NS2(=O)=O (centres unmarked) [Example 36a, 2H-1,2,4-Benzothiadiazine-7-sulfonamide, 3-(bromomethyl)-6-chloro-3,4-dihydro-, 1,1-dioxide] | 5.5 ± 0.6 mL | 
2 | CC(C)(C)OC(=O)N1CCC2(CC1)Nc1cc(C(F)(F)F)c(S(N)(=O)=O)cc1S(=O)(=O)N2 [Example 12a, Spiro[2H-1,2,4-benzothiadiazine-3(4H), 4′-piperidine]-1′-carboxylic acid, 7-(aminosulfonyl)-6-(trifluoromethyl)-, 1,1-dimethylethyl ester, 1,1-dioxide] |  | Urine collected in 6 hours (mL) (30 mg/kg) (p.o. 30 mg/kg in 0.5% Methocel, male Wistar rats, 6 hours, mean ± SEM, n=6 or 7): 4.0 ± 0.4 mL
3 | NS(=O)(=O)c1cc2c(cc1Cl)NCN(CC(=O)O)S2(=O)=O [Example 31a, 2H-1,2,4-Benzothiadiazine-2-acetic acid, 7-(aminosulfonyl)-6-chloro-3,4-dihydro-, 1,1-dioxide] | 2.5 ± 0.3 mL | 
4 | NS(=O)(=O)c1cc2c(cc1Cl)NCN(CC(=O)N(CCO[N+](=O)[O-])CCO[N+](=O)[O-])S2(=O)=O [Example 39, 2H-1,2,4-Benzothiadiazine-2-acetamide, 7-(aminosulfonyl)-6-chloro-3,4-dihydro-N,N-bis[2-(nitrooxy)ethyl]-, 1,1-dioxide] |  | Urine collected in 6 hours (mL) (3 mg/kg) (rat, in vivo, po): 2.5 ± 0.5 mL
5 | NS(=O)(=O)c1cc2c(cc1Cl)NC(CN1CCC(CCO[N+](=O)[O-])CC1)NS2(=O)=O.O=C(O)CC(O)(CC(=O)O)C(=O)O (centres unmarked) [Example 36c, 2H-1,2,4-Benzothiadiazine-7-sulfonamide, 6-chloro-3,4-dihydro-3-[[4-[2-(nitrooxy)ethyl]-1-piperidinyl]methyl]-, 1,1-dioxide, 2-hydroxy-1,2,3-propanetricarboxylate (1:1) (salt)] | 3.0 ± 0.4 mL | 
6 | NS(=O)(=O)c1cc2c(cc1Cl)NC1(CCN(C(=O)CCC(CO[N+](=O)[O-])O[N+](=O)[O-])CC1)NS2(=O)=O (centres unmarked) [Example 22b, Spiro[2H-1,2,4-benzothiadiazine-3(4H), 4′-piperidine]-7-sulfonamide, 1′-[4,5-bis(nitrooxy)-1-oxopentyl]-6-chloro-, 1,1-dioxide] |  | Urine collected in 6 hours (mL) (30 mg/kg) (rat, in vivo, po): 2.5 ± 0.2 mL
7 | NS(=O)(=O)c1cc2c(cc1Cl)NCN(CC(O)CO)S2(=O)=O (centres unmarked) [Example 75b, 2H-1,2,4-Benzothiadiazine-7-sulfonamide, 6-chloro-2-(2,3-dihydroxypropyl)-3,4-dihydro-, 1,1-dioxide] | 4.6 ± 0.6 mL | 
8 | NS(=O)(=O)c1cc2c(cc1Cl)NCN(CCCCOc1cc(CO)cc(CO)c1)S2(=O)=O [Example 69a, 2H-1,2,4-Benzothiadiazine-7-sulfonamide, 2-[4-[3,5-bis(hydroxymethyl)phenoxy]butyl]-6-chloro-3,4-dihydro-, 1,1-dioxide] | 2.7 ± 0.6 mL | 
9 | NS(=O)(=O)c1cc2c(cc1Cl)NCN(CCOc1cc(CO)cc(CO)c1)S2(=O)=O [Example 71b, 2H-1,2,4-Benzothiadiazine-7-sulfonamide, 2-[2-[3,5-bis(hydroxymethyl)phenoxy]ethyl]-6-chloro-3,4-dihydro-, 1,1-dioxide] | 2.1 ± 0.5 mL | 
10 | NS(=O)(=O)c1cc2c(cc1Cl)NCN(CC(CO[N+](=O)[O-])O[N+](=O)[O-])S2(=O)=O (centres unmarked) [Example 75c, 2H-1,2,4-Benzothiadiazine-7-sulfonamide, 2-[2,3-bis(nitrooxy)propyl]-6-chloro-3,4-dihydro-, 1,1-dioxide] |  | Urine collected in 6 hours (mL) (3 mg/kg) (rat, in vivo, po): 5.4 ± 0.6 mL
11 | NS(=O)(=O)c1cc2c(cc1Cl)NCN(CCCCO[N+](=O)[O-])S2(=O)=O [Example 40b, 2H-1,2,4-Benzothiadiazine-7-sulfonamide, 6-chloro-3,4-dihydro-2-[4-(nitrooxy)butyl]-, 1,1-dioxide] | 6.0 ± 0.7 mL | 
